Numbered stars: 1 amine (or outer) side, 2 acyl side, 3 side chain; on linkers, the order of the positions; unused ones are H or OH. Bridge positions count the residues as written; N and C are the ends. Square brackets hold non-standard residues; d marks the D form. Peptide text beside a SMILES is read from it. * marks the point of attachment. 5FAM = O=C1OC2(c3ccc(O)cc3Oc3cc(O)ccc32)c2ccc(C(=O)*)cc21; X1 = O=C(CN(CC[*:3])[*:1])[*:2]; Mpa = O=C(O)CCS
What was measured:
[1] = Drug uptake in cytoplasm of HEK293T cells at 10 uM after 16 hrs by DAPI staining based confocal microscopic method; assay type: ADME, cell-based; settings: human
Estrogen receptor = molecular target: T1, Estrogen receptor (Homo sapiens, UniProt P03372); assay: Binding affinity to recombinant human ER-alpha LBD (301 to 553 residues) expressed in Escherichia coli BL21(DE3) after 1 hr by fluorescence polarization assay
T1 sequence (P03372 whole entry): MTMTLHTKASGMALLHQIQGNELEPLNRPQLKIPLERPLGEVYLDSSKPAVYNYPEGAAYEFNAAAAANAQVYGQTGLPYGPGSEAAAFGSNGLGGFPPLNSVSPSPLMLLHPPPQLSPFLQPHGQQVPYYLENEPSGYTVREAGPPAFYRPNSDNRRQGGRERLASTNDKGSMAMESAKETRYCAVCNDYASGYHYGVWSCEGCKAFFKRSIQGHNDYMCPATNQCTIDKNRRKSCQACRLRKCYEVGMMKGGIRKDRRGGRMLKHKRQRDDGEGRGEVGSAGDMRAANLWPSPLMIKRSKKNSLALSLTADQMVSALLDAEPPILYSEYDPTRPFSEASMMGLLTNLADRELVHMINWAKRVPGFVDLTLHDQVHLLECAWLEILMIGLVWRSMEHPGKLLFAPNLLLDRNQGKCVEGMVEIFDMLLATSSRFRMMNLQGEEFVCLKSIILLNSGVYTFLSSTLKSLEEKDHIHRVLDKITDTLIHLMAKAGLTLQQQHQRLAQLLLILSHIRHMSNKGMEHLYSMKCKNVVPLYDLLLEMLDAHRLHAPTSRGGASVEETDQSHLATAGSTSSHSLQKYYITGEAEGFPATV

[2] = Drug uptake in HEK293T cells at 10 uM after 4 hrs by flow cytometry; assay type: ADME, cell-based; settings: human, hek-293t
[3] = Stability assessed as trypsin (unknown origin)-mediated compound hydrolysis by measuring compound half life at 250 uM at 37 degC by LC-MS/MS method; assay type: ADME; settings: human

With `CC[C@H](C)[C@H](NC(=O)CN1CC[S+]([O-])CCC(=O)N[C@@H](CCCNC(=N)N)C(=O)N[C@@H](CCCCNC(=O)c2ccc3c(c2)C(=O)OC32c3ccc(O)cc3Oc3cc(O)ccc32)C1=O)C(=O)N[C@@H](CC(C)C)C(=O)N[C@@H](CCCNC(=N)N)C(=O)N[C@@H](CCCNC(=N)N)C(=O)N[C@@H](CC(C)C)C(=O)N[C@@H](CC(C)C)C(=O)N[C@@H](CCC(N)=O)C(=O)NCC(=O)N[C@@H](Cc1c[nH]c2ccccc12)C(N)=O` (stereo in doubt; form 2) the Drug uptake [1] was “Active”, the Kd (Estrogen receptor) was 386 nM and the Drug uptake [2] was “Active”.

Compound `CC[C@H](C)[C@H](NC(=O)CN1CCSCCC(=O)N[C@@H](CCCNC(=N)N)C(=O)N[C@@H](CCCCNC(=O)c2ccc3c(c2)C(=O)OC32c3ccc(O)cc3Oc3cc(O)ccc32)C1=O)C(=O)N[C@@H](CC(C)C)C(=O)N[C@@H](CCCNC(=N)N)C(=O)N[C@@H](CCCNC(=N)N)C(=O)N[C@@H](CC(C)C)C(=O)N[C@@H](CC(C)C)C(=O)N[C@@H](CCC(N)=O)C(=O)NCC(=O)N[C@@H](Cc1c[nH]c2ccccc12)C(N)=O` ([Mpa]RK(5FAM)[X1]ILRRLLQGW-NH2; thioether 1-4) has a Kd (Estrogen receptor) of 212 nM.

In the case of `CC[C@H](C)[C@H](NC(=O)CNC(=O)[C@H](CCCCNC(=O)c1ccc2c(c1)C(=O)OC21c2ccc(O)cc2Oc2cc(O)ccc21)NC(=O)[C@@H](N)CCCNC(=N)N)C(=O)N[C@@H](CC(C)C)C(=O)N[C@@H](CCCNC(=N)N)C(=O)N[C@@H](CCCNC(=N)N)C(=O)N[C@@H](CC(C)C)C(=O)N[C@@H](CC(C)C)C(=O)N[C@@H](CCC(N)=O)C(=O)NCC(=O)N[C@@H](Cc1c[nH]c2ccccc12)C(=O)O` (H-RK(5FAM)GILRRLLQGW-OH), the Kd (Estrogen receptor) is reported as 162 nM.

In the case of `CC[C@H](C)[C@H](NC(=O)CN1CC[S+]([O-])CCC(=O)N[C@@H](CCCNC(=N)N)C(=O)N[C@@H](CCCCNC(=O)c2ccc3c(c2)C(=O)OC32c3ccc(O)cc3Oc3cc(O)ccc32)C1=O)C(=O)N[C@@H](CC(C)C)C(=O)N[C@@H](CCCNC(=N)N)C(=O)N[C@@H](CCCNC(=N)N)C(=O)N[C@@H](CC(C)C)C(=O)N[C@@H](CC(C)C)C(=O)N[C@@H](CCC(N)=O)C(=O)NCC(=O)N[C@@H](Cc1c[nH]c2ccccc12)C(N)=O` (stereo in doubt; form 1), the Kd (Estrogen receptor) is reported as 183 nM.

`CC[C@H](C)[C@H](NC(=O)CN1CC[S+]([O-])CCC(=O)N[C@@H](CCCNC(=N)N)C(=O)N[C@@H](CCCCN)C1=O)C(=O)N[C@@H](CC(C)C)C(=O)N[C@@H](CCCNC(=N)N)C(=O)N[C@@H](CCCNC(=N)N)C(=O)N[C@@H](CC(C)C)C(=O)N[C@@H](CC(C)C)C(=O)N[C@@H](CCC(N)=O)C(=O)NCC(=O)N[C@@H](Cc1c[nH]c2ccccc12)C(N)=O` (single isomer, unassigned; isomer 2) gave a t1/2 [3] of 2.1 min.

Compound `CC[C@H](C)[C@H](NC(=O)CN1CC[S+]([O-])CCC(=O)N[C@@H](CCCNC(=N)N)C(=O)N[C@@H](CCCCN)C1=O)C(=O)N[C@@H](CC(C)C)C(=O)N[C@@H](CCCNC(=N)N)C(=O)N[C@@H](CCCNC(=N)N)C(=O)N[C@@H](CC(C)C)C(=O)N[C@@H](CC(C)C)C(=O)N[C@@H](CCC(N)=O)C(=O)NCC(=O)N[C@@H](Cc1c[nH]c2ccccc12)C(N)=O` (stereo in doubt) has a t1/2 [3] of 5.9 min.
